We go through 19 compounds from PMC6016738 (European journal of medicinal chemistry, 2018).

Bounds are passed on as bounds.

One test concerns S. aureus ATCC 25923. The experiment in a line: Antibacterial activity. The format is cell-based. The conditions noted are these: Staphylococcus aureus, ATCC25923, read-out: growth inhibition of S. aureus.
For another test, the system named is E. faecalis ATCC 29212. As to the kind of experiment: Antibacterial activity. The format is cell-based, Enterococcus faecalis. The note with it: for inhibition at 50 µM: Enterococcus faecalis, ATCC29212, read-out: growth inhibition of E. faecalis.
Test [1] is described as follows: Growth inhibition of the bacterial panel at 50 μM. The format is cell-based. The note with it: read-out: growth inhibition of bacteria (all tested strains, Table 1S).
The target of the next test is E. coli DNA gyrase (Escherichia coli, UniProt P0AES6). As to the kind of experiment: E. coli DNA gyrase supercoiling assay.
In a further test the target is E. coli topoisomerase IV (Escherichia coli, UniProt P20083). The experiment in a line: E. coli topoisomerase IV inhibition assay. The note with it: for remaining activity at 1 µM: read-out: RA (residual activity) E. coli topo IV; for IC50: IC50 E. coli topo IV.
Sequence of E. coli topoisomerase IV (P20083 whole entry): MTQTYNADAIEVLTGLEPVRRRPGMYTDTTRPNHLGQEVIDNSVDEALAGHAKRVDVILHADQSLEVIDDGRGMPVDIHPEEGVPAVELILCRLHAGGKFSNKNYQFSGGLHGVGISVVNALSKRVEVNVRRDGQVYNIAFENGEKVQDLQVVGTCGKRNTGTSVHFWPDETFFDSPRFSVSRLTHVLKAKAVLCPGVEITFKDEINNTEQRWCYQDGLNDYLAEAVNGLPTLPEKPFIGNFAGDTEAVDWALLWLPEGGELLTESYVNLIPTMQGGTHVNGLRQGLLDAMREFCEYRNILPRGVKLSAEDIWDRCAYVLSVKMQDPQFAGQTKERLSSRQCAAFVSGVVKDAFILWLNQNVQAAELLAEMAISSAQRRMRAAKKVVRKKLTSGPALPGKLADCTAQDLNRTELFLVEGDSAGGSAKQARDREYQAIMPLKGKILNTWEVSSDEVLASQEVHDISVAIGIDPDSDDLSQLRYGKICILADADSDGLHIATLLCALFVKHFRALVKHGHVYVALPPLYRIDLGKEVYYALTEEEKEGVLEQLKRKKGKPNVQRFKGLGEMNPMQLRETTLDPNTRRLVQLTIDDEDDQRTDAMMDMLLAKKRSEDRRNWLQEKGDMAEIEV
Sequence of E. coli topoisomerase IV (P0AFI2 whole entry partner): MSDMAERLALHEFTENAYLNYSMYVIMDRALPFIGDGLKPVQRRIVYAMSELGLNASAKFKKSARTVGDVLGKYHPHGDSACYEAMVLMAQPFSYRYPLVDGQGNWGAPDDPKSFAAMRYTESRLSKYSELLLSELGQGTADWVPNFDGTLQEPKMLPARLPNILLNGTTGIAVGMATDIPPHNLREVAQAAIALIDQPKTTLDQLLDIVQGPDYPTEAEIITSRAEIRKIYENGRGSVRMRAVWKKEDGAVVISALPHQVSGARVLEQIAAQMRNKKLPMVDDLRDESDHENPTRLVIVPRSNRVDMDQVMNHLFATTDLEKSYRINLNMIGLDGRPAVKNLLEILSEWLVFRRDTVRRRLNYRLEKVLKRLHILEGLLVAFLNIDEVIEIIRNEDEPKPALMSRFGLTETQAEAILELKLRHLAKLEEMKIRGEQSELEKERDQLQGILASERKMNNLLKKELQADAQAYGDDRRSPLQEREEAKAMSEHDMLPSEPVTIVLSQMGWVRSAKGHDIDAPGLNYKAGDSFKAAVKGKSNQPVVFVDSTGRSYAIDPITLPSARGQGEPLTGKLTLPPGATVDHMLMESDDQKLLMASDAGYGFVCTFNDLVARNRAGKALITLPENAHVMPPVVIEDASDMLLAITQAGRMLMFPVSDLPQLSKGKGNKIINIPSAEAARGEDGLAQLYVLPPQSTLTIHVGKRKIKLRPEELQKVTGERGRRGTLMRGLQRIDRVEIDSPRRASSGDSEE
For the next test, the system named is E. coli (ATCC 25922). The experiment in a line: MIC broth micro-dilution. Format: cell-based, Escherichia coli. (In general: In broth dilution the organism is exposed to a series of concentrations in liquid medium.)
A further test concerns E. coli (MG1655). As to the kind of experiment: MIC broth micro-dilution. The format is cell-based, Escherichia coli.
In a further test the test system is E. coli (BW 25113). The experiment in a line: MIC broth micro-dilution. The format is cell-based, Escherichia coli.
For the next test, the system named is HepG2 cells. The note with it: read-out: IC50 HepG2; literature value; cited from earlier work.
For the next test, the system named is HUVEC cells. The note with it: read-out: IC50 HUVEC; literature value; cited from earlier work.
A further test relates to E. coli JW5503 ΔtolC. As to the kind of experiment: Antibacterial activity. The format is cell-based, Escherichia coli. The note with it: inhibitor concentration 50 μM.

`COC(=O)[C@H](Cc1ccccc1)NC(=O)c1ccc(NC(=O)c2cc(Br)c(Br)[nH]2)c(OCCN)c1` [Compound 9a, (S)-2-(2-(4,5-Dibromo-1H-pyrrole-2-carboxamido)-5-((1-methoxy-1-oxo-3-phenylpropan-2-yl)carbamoyl)phenoxy)ethan-1-aminium chloride]: the inhibition at 50 µM in the test with S. aureus ATCC 25923 and in the test with E. faecalis ATCC 29212 was over 80% throughout.

On to `CC(C)Oc1cc(C(=O)N[C@H](C(=O)O)C(C)C)ccc1NC(=O)c1cc(Br)c(Br)[nH]1` [Compound 8a, (4-(4,5-Dibromo-1H-pyrrole-2-carboxamido)-3-isopropoxybenzoyl)-L-valine], for which the inhibition at 50 µM in the test on E. faecalis ATCC 29212 was over 80%.

`NCCOc1cc(C(=O)N[C@@H](Cc2ccccc2)C(=O)O)ccc1NC(=O)c1cc(Br)c(Br)[nH]1` [Compound 9d]: in [1], the inhibition at 50 µM was under 36%.

As to “4,5-Dibromo-N-(2-isopropoxy-4-((pyridin-2-ylmethyl)carbamoyl)phenyl)-1H-pyrrole-2-carboxamide [Compound 15a]”, the “RA (residual activity) E. coli gyrase” value on E. coli DNA gyrase (residual activity of the enzyme at 1 μM of the compound) was found to be 100%.

As to `Cc1[nH]c(C(=O)Nc2ccc(C(=O)N[C@@H](C)C(=O)O)cc2OCCNC(=O)OC(C)(C)C)c(Cl)c1Cl` [Compound 8i], the remaining activity at 1 µM at E. coli topoisomerase IV was 100%.

`Cc1[nH]c(C(=O)Nc2ccc(C(=O)N[C@@H](C)c3n[nH]c(=O)o3)cc2OCCNC(=O)OC(C)(C)C)c(Cl)c1Cl` [Compound 11b]: the inhibition at 50 µM in the test with E. faecalis ATCC 29212 was over 80%.

`Cc1[nH]c(C(=O)Nc2ccc(C(=O)N[C@@H](C)c3n[nH]c(=O)o3)cc2OC(C)C)c(Cl)c1Cl` [Compound 11a, (S)-3,4-Dichloro-N-(2-isopropoxy-4-((1-(5-oxo-4,5-dihydro-1,3,4-oxadiazol-2-yl)ethyl)carbamoyl)phenyl)-5-methyl-1H-pyrrole-2-carboxamide]: the inhibition at 50 µM in the test with S. aureus ATCC 25923 and in the test on E. faecalis ATCC 29212 was over 80% in each case. Also, the minimum inhibitory concentration (MIC) was over 50 µM in the test with E. coli (ATCC 25922) (Escherichia coli, ATCC25922, read-out: MIC E. coli (ATCC 25922)); over 50 µM in the test with E. coli (MG1655) (Escherichia coli, MG1655, read-out: MIC E. coli (MG1655)); over 50 µM with E. coli (BW 25113) (Escherichia coli, read-out: MIC E. coli (BW 25113)). In addition, the “MIC E. coli (ATCC 25922)” value against E. coli (ATCC 25922) (without PAβN) was “no bioactivity”. Moreover, the “MIC E. coli (MG1655)” value in the test on E. coli (MG1655) (without PAβN) is on record as “no bioactivity”. For the same compound, in the test with E. coli (BW 25113) (without PAβN), the “MIC E. coli (BW 25113)” value is listed as “no bioactivity”.

For the compound `Cc1[nH]c(C(=O)Nc2ccc(C(=O)N[C@@H](C)C(=O)NN)cc2OC(C)C)c(Cl)c1Cl` [Compound 10a, (S)-3,4-Dichloro-N-(4-((1-hydrazineyl-1-oxopropan-2-yl)carbamoyl)-2-isopropoxyphenyl)-5-methyl-1H-pyrrole-2-carboxamide], the inhibition at 50 µM with E. faecalis ATCC 29212 is over 80%. The remaining activity at 1 µM on E. coli topoisomerase IV stood at 100%.

For the compound `CC(C)Oc1cc(NC(=O)c2cc(Br)c(Br)[nH]2)ccc1C(=O)NCC(=O)O` [Compound 23c], at E. coli topoisomerase IV, the remaining activity at 1 µM is 100%.

With `COc1cc([C@@H]2c3cc4c(cc3[C@@H](O[C@@H]3O[C@@H]5CO[C@@H](C)O[C@H]5[C@H](O)[C@H]3O)[C@H]3COC(=O)[C@H]23)OCO4)cc(OC)c1O` [Etoposide], the 50% inhibitory concentration (IC50) is 30200 nM with HepG2 cells and 1250 nM in the test with HUVEC cells.

As to `Cc1[nH]c(C(=O)Nc2ccc(C(=O)N[C@@H](Cc3ccccc3)C(=O)O)cc2OC(C)C)c(Cl)c1Cl` [Compound 8d], in the test with E. faecalis ATCC 29212, the inhibition at 50 µM was over 80%.

With `Cc1[nH]c(C(=O)Nc2ccc(C(=O)NCC(=O)O)c(OC(C)C)c2)c(Cl)c1Cl` [Compound 23d], the remaining activity at 1 µM on E. coli topoisomerase IV was 100%.

As for `NCCOc1cc(C(=O)NCC(=O)O)ccc1NC(=O)c1cc(Br)c(Br)[nH]1` [Compound 9c], the inhibition at 50 µM in [1] is under 36%.

Regarding `Cc1[nH]c(C(=O)Nc2ccc(C(=O)N[C@@H](C)C(=O)O)cc2OC(C)C)c(Cl)c1Cl` [Compound 8e], in the test with E. faecalis ATCC 29212, the inhibition at 50 µM was over 80%. Also, the IC50 on E. coli topoisomerase IV was under 1000 nM.

Regarding `Cc1[nH]c(C(=O)Nc2ccc(C(=O)N[C@H](C)C(=O)O)cc2OC(C)C)c(Cl)c1Cl` [Compound 8f], in the test with E. faecalis ATCC 29212, the inhibition at 50 µM is over 80%.

On to `COC(=O)[C@H](C)NC(=O)c1ccc(NC(=O)c2[nH]c(C)c(Cl)c2Cl)c(OCCN)c1.Cl` [Compound 9b], for which the inhibition at 50 µM in the test on S. aureus ATCC 25923 and with E. faecalis ATCC 29212 was over 80% each time. In addition, the “growth inhibition of E. coli JW5503 ΔtolC” value in the test with E. coli JW5503 ΔtolC is listed as “completely suppressed”.

With `O=C(O)CNC(=O)c1ccc(NC(=O)c2cc(Br)c(Br)[nH]2)cc1OCc1ccccc1` [Compound 23a, (2-(Benzyloxy)-4-(4,5-dibromo-1H-pyrrole-2-carboxamido)benzoyl)glycine], the “fold more active on E. coli gyrase than isopropoxy analogue 23c” value at E. coli DNA gyrase (ratio of IC50 values) turned out to be 4 fold. This compound also showed an IC50 on E. coli topoisomerase IV of 42000 ± 11000 nM.

Consider `Cc1[nH]c(C(=O)Nc2ccc(C(=O)N[C@@H](C)C(=O)O)cc2OCCN)c(Cl)c1Cl` [Compound 9e], for which the inhibition at 50 µM in [1] was under 36%. Moreover, at E. coli topoisomerase IV, the half-inhibitory concentration (IC50) is under 1000 nM.

For the compound `Cc1[nH]c(C(=O)Nc2ccc(C(=O)N[C@@H](C)c3n[nH]c(=O)o3)cc2OCCN)c(Cl)c1Cl` [Compound 12, (S)-2-(2-(3,4-Dichloro-5-methyl-1H-pyrrole-2-carboxamido)-5-((1-(5-oxo-4,5-dihydro-1,3,4-oxadiazol-2-yl)ethyl)carbamoyl)phenoxy)ethan-1-aminium chloride], in the test on E. faecalis ATCC 29212 (inhibitor concentration 50 μM), the “growth inhibition of E. faecalis” value is “no growth inhibition”. Also, at E. coli topoisomerase IV, the IC50 is under 1000 nM.

The inhibition is the change of the read-out against control, counted positive when it falls. As a reminder, the MIC is the lowest concentration found to suppress growth. As usually defined, the IC50 is the concentration at which inhibition is half-maximal.
